The values below come from patent US20170224679A1, “Use of CXCR2 Antagonists For The Prevention and/or Treatment of Chemotherapy Induced Peripheral Neuropathy (CIPN)” (GlaxoSmithKline Intellectual Property Development Limited, priority 2014, published 2017).

Structures are written as SMILES.

One series deals with T1, CXCR1 receptor (Homo sapiens, UniProt P25024).
T1 sequence (P25024 1-350): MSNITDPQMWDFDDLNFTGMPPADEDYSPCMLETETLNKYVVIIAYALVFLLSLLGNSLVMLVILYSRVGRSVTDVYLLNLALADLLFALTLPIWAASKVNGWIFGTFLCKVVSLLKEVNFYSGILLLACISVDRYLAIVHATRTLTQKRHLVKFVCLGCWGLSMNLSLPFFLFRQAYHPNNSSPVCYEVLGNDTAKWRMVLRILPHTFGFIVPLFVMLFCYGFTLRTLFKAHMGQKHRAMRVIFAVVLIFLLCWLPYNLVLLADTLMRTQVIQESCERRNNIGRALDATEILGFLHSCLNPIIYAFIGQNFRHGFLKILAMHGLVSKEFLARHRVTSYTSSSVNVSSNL
The series is described as follows: Receptor binding assay ([125I] IL-8 SPA), CXCR1. Details: expressed in transfected cells; host or cells: CHO cells (membranes). The settings on record: [125I] IL-8 binding, CHO-CXCR1 membranes; read-out: pIC50 against the CXCR1 receptor (converted). The method, then: [^125I] IL-8 (human recombinant, IM249) was obtained from Amersham Corp., Arlington Heights, Ill., with specific activity 2000 Ci/mmol. All other chemicals were of analytical grade. High levels of recombinant human CXCR1 and CXCR2 receptors were individually expressed in Chinese hamster ovary (CHO) cells as described in Holmes, et al., Science, 1991, 253, 1278, incorporated herein to the extent required to perform the present assay. The Chinese hamster ovary membranes were prepared according to Haour, et al., J. Biol. Chem., 249 pp 2195-2205 (1974), incorporated herein to the extent required to perform the present assay, except that the homogenization buffer was changed to 40 mM Tris-HCL pH 7.5 containing 1 mM MgSO4, 0.5 mM EDTA (ethylene-diaminetetra-acetic acid), 1 mM PMSF (α-toluene-sulphonyl fluoride), 2.5 mg/L Leupeptin and 0.1 mg/ml Aprotinin. Membrane protein concentration was determined using Bio-Rad Reagent using bovine serum albumin as a standard. All binding assays were conducted using Scintillation Proximity Assay (SPA assay) using wheatgerm agglutinin beads in a 96-well micro plate (optiplate 96, Packard) format. […] The 96-well plates were incubated on a shaking platform for 1 hour. At the end of the incubation the plates were spun for 5 min at 2000 RPM, and counted in a Top Count counter.

The next series concerns the target T2, CXCR2 receptor (Homo sapiens, UniProt P25025).
T2 sequence (P25025 1-360): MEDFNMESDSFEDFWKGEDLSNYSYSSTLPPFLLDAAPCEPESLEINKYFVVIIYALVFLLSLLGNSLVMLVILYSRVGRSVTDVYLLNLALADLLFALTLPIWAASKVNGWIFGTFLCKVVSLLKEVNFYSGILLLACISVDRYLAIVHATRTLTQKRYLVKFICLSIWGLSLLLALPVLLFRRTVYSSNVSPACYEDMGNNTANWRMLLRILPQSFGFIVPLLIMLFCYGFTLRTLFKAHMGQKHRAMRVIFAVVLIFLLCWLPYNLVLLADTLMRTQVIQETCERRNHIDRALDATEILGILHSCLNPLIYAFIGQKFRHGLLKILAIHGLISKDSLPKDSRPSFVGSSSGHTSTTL
The series is described as follows: CXCR2 Tango assay. The settings on record: Tango reporter gene, 80 nM hCXCL1; read-out: pIC50 against the CXCR2 receptor (converted). Format: cell-based. Also noted: fused on or other part: TEV protease cleavage site and Gal4-VP16 transcription factor fused to the receptor (Invitrogen Tango construct); no part of the key. An excerpt:
The assay measures ligand-induced activation of the receptor CXCR2 in a stable cell line containing the recombinant human CXCR2 linked to a TEV protease site and a Gal4-VP16 transcription factor (Invitrogen). Ligand binding to the receptor results in the recruitment of arrestin proteins (tagged with protease) to the receptor and triggers the release of a tethered transcription factor. The transcription factor enters the nucleus and activates the transcription of the reporter gene. The ability of a compound to inhibit CXCR2 activation is indirectly assessed by measuring the reporter gene activity.
A vial of cryopreserved cells was removed from liquid nitrogen and rapidly thawed in a water bath at 37° C. with gentle agitation. The cell contents were collected and resuspended in Assay Medium at a density of ˜200,000 cells/ml. All test compounds were dissolved in DMSO at a concentration of 10 mM and then were serially diluted to generate a 10-point dose response curve into 384-well assay plate (Greiner 781090) using an Echo (Labcyte) concentration-response program (50 nl/well). The cell-free, un-stimulated and positive controls were loaded with 50 nl/well pure DMSO to ensure that the DMSO concentration was constant across the plate for all assays. Using Multi-drop Combi (Thermo) with standard cassette, 50 μl of Assay Medium was added to cell-free control wells in compound-containing assay plate; 50 μl of the cell suspension without hCXCL1 (a CXCR2 ligand) was added to un-stimulated control wells (10,000 cells per well); and 50 μl of the cell suspension with 80 nM hCXCL1 was added to the rest of wells of the assay plate (10,000 cells per well). The cells were incubated overnight at 37° C./5% CO2·10 μl of 6× substrate mixture (LiveBLAzer™-FRET B/G substrate (CCF4-AM) Cat #K1096 from Invitrogen, Inc.) was added to each well using Multi-drop Combi (Thermo) with small-tube cassette and the plate was incubated at room temperature for 2 h in the dark. The plate was then read on EnVision using one excitation channel (409 nm) and two emission channels (460 nm and 530 nm).
The blue/green emission ratio (460 nm/530 nm) was calculated for each well by dividing the background-subtracted Blue emission values by the background-subtracted Green emission values. The dose response curve was based on sigmoidal dose-response model. All ratio data was normalized based upon the maximum emission ratio of positive control (hCXCL1) and minimum emission ratio of negative control (DMSO) on each plate.
In general terms: Reporter assays use an easily measured gene product as a stand-in for the process of interest.

In another series the test system is HCT116 cell line. Put plainly: Colorectal cancer cell line proliferation assay, HCT116. It is filed as cell-based. The settings on record: HCT116, 72 hours. The method, then: Cell proliferation assay: Cells were seeded in 96-well plates (Costar) at different cell densities: HCT116, 500 cells per well; Caco-2, 1000 cells per well. Total volume of the medium was 90 μl per well. Cells were incubated for 24 hours at 37° C. and 5% CO2 incubator. […] The final concentration of the Compound of Formula (A) was 8.5 μM. […] The cell proliferation rate was measured by adding 100 μl of CellTiter-Glo™ (Promega) according to the manufacturer's instructions. After 10 minutes of incubation, the cell lysates were transferred into OptiPlate-384 well, the luminescence was recorded by BioTek Synergy™ 4 Hybrid Microplate Reader with Gen5 software. All data points were generated in five replicates. Three independent experiments were performed. […] All data were presented as the mean±standard error of the mean determined from three independent experiments.

A further series deals with Sprague-Dawley rats. The series is described as follows: CXCR2 antagonist effect on repeat dosing oxaliplatin induced sensory injury rat. The settings on record: Veh/Oxa rats, 4 mg/kg i.p. twice per week for 4 weeks, Day 29-31, mean±SEM.

Experimental for Sprague-Dawley rats: Male Sprague-Dawley rats (109-167 g, ˜5weeks old) were housed in cages in groups of three in a controlled environment of constant temperature and moisture (temperature: 25±3° C., light: dark cycle of 12:12 hours) with food (25 g/rat/day of LabDiet 5053) and water available ad libitum.
MC (Sigma Cat #423238) was made up in water at 1% (w/v) (1 g per 100 mL water) and left on a stirrer until completely dissolved. The formulation was prepared every 6-8 days in 400-700 mL each time and stored at 4° C. protected from light. The dosing volume used was 10 mL/kg to give a 20 mg/kg p.o. dose. Vehicle treated animals were dosed b.i.d. with 1% MC w/v at 10 mL/kg p.o.
A fresh solution was prepared before every injection. Control vehicle animals were treated with 5% w/v Gluclose at 5ml/kg. Glucose (Sigma Aldrich Cat #G7021) was made up in milli-Q water at 5% (w/v) (5 g per 100 mL water) and left on a stirrer until completely dissolved.
Body weight tracking: The bodyweights of rats were measured twice a week for 4 weeks on Days 1, 3, 9, 11, 16, 18, 23, and 25. […]
Rats were anesthetized with chloral hydrate (350 mg/kg, 3.5 mL/kg, i.p.). […] The right sciatic nerve was carefully identified and conduction velocity was measured by recording action potentials from an electrode placed between the second and third digits as described by Jamieson et al., Br. J. Cancer, 88(12):1942-7 (2003), and electrically stimulating the nerve (5V, 0.5 s, single-wave pulses) via a platinum wire electrode at the sciatic notch and ankle. The length between the sciatic notch and ankle was measured.
The nerve conduction velocity was calculated as the length between sciatic notch and ankle divided by the difference between the time latencies at the stimulation sites [latency (sciatic notch)−latency (ankle)].
A 1 cm segment of the left sciatic nerve (distal end) was located and carefully dissected out. […] The ratio of inner area over entire area of nerve fibers of sciatic nerves was then calculated as an indicator of thickness of myelin sheath of nerves.

Turning to `Cc1c(F)cccc1NC(=O)Nc1ccc(Cl)c(S(=O)(=O)C2CCCNC2)c1O` (stereo not shown) [Compound of Formula (B), 1-(4-chloro-2-hydroxy-3-(piperidin-3-ylsulfonyl)phenyl)-3-(3-fluoro-2-methylphenyl)urea], at CXCR1 receptor, the IC50 was 1000 nM.

`CC1=CCC[C@H]1NC(=O)Nc1ccc(Cl)c(S(=O)(=O)[C@]2(C)CCOC2)c1O` [Compound of Formula (C), 1-(4-chloro-2-hydroxy-3-(((R)-3-methyltetrahydrofuran-3-yl)sulfonyl)phenyl)-3-((R)-2-methylcyclopent-2-en-1-yl)urea]: the IC50 on CXCR2 receptor was 1 nM.

Consider `CC1(S(=O)(=O)c2c(Cl)ccc(NC(=O)N[C@@H]3CCC=C3Cl)c2O)CCOCC1` [Compound of Formula (E), (R)-1-(4-chloro-2-hydroxy-3-((4-methyltetrahydro-2H-pyran-4-yl)sulfonyl)phenyl)-3-(2-chlorocyclopent-2-en-1-yl)urea], for which the IC50 on CXCR2 receptor was 1.58 nM.

Turning to `CC1=CCC[C@H]1NC(=O)Nc1ccc(C#N)c(S(=O)(=O)C(C)(C)C)c1O` [Compound of Formula (F), (R)-1-(3-(tert-butylsulfonyl)-4-cyano-2-hydroxyphenyl)-3-(2-methylcyclopent-2-en-1-yl)urea], the IC50 on CXCR2 receptor is 0.2 nM.

Take `CC1=CCC[C@H]1NC(=O)Nc1ccc(Cl)c(S(=O)(=O)[C@H]2C[C@H](N3CCCC3)C2)c1O` [Compound of Formula (G), 1-(4-chloro-2-hydroxy-3-((trans-3-(pyrrolidin-1-yl)cyclobutyl)sulfonyl)phenyl)-3-((R)-2-methylcyclopent-2-en-1-yl)urea]: the IC50 at CXCR2 receptor was 1 nM.

For `CC1=CCC[C@H]1NC(=O)Nc1ccc(Cl)c(S(=O)(=O)[C@H]2C[C@H](N(C)C)C2)c1O` [Compound of Formula (H), 1-(4-chloro-3-((trans-3-(dimethylamino)cyclobutyl)sulfonyl)-2-hydroxyphenyl)-3-((R)-2-methylcyclopent-2-en-1-yl)urea], the IC50 at CXCR2 receptor is 1 nM.

As for `CC1=CCC[C@H]1NC(=O)Nc1ccc(Cl)c(S(=O)(=O)C(C)(F)F)c1O` [Compound of Formula (I), (R)-1-(4-chloro-3-((1,1-difluoroethyl)sulfonyl)-2-hydroxyphenyl)-3-(2-methylcyclopent-2-en-1-yl)urea], the IC50 at CXCR2 receptor was 0.398 nM.

On to `O=C1[O][Pt]2([NH][C@@H]3CCCC[C@H]3[NH]2)[O]C1=O` [Oxaliplatin, oxaliplatin], for which the “pIC50 inhibition of cell proliferation” value with HCT116 cell line (oxaliplatin with vehicle, mean±SEM) was determined as 6.049±0.016. The “pIC50 inhibition of cell proliferation in the presence of Compound of Formula (A)” value with HCT116 cell line (with Compound of Formula (A) 8.5 μM) was found to be 6.05±0.02. The “sciatic nerve conduction velocity between sciatic notch and ankle” value with Sprague-Dawley rats was 35.99±0.59 m/s.
